Patent US9428564B2, “Muscle function enhancing peptide” (Universitatsklinikum Heidelberg, priority 2009, dated 2016)
Where two headings read alike, the source gives them in different places.

System: isolated rat ventricular cardiomyocytes
Format: cell-based
Settings: for effect on calcium transient amplitudes: field-stimulated (1 Hz) isolated rat ventricular cardiomyocytes, FIG. 25; for inotropic effect (calcium transients): basal conditions, intact field-stimulated cardiomyocytes; for inotropic effect (calcium transients) under βAR stimulation: β-AR stimulated, 10^−9 M Isoproterenol

D-K-D-D-P-P (DKDDPP; hydrophilic motif) [linker, reference compound]
effect on calcium transient amplitudes: do not exhibit the inotropic effect

D-K-D-D-P-P-V-V-L-V-A-A-L-T-V-A (DKDDPPVVLVAALTVA; amino acids 76 to 85 of human S100A1 fused to a hydrophilic motif) [N-76-85-C, amino acids 76 to 85 of human S100A1 fused to a hydrophilic linker (D-K-D-D-P-P)]
effect on calcium transient amplitudes (listed as peptide consisting of amino acids 76 to 85 of human S100A1 fused to a hydrophili): exerts the same inotropic function as the S100A1ct6/11 peptide

DKDDPP-FMAFVAMVTTA (DKDDPPFMAFVAMVTTA; amino acids 75 to 85 of S100B fused to a hydrophilic motif) [amino acids 75-85 of S100B fused to a hydrophilic motif, reference compound]
inotropic effect (calcium transients): fail to reproduce S100A1ct6/11 inotropic actions
inotropic effect (calcium transients) under βAR stimulation: neither S100A4ct nor S100Bct mimic S100A1ct6/11 inotropic effects

DKDDPP-YCVFLSCIAMM (DKDDPPYCVFLSCIAMM; amino acids 75 to 85 of S100A4 fused to a hydrophilic motif) [amino acids 75-85 of S100A4 fused to a hydrophilic motif, reference compound]
inotropic effect (calcium transients): fail to reproduce S100A1ct6/11 inotropic actions
inotropic effect (calcium transients) under βAR stimulation: neither S100A4ct nor S100Bct mimic S100A1ct6/11 inotropic effects

N-77-85-C: amino acids 77 to 85 of human S100A1 protein set forth in SEQ ID NO: 1 (VLVAALTVA; listed as Homo sapiens)
effect on calcium transient amplitudes: abolishes the inotropic effect

N-78-85-C: amino acids 78 to 85 of human S100A1 protein set forth in SEQ ID NO: 1 (LVAALTVA; listed as Homo sapiens)
effect on calcium transient amplitudes: abolishes the inotropic effect

N-79-85-C: amino acids 79 to 85 of human S100A1 protein set forth in SEQ ID NO: 1 (VAALTVA; listed as Homo sapiens)
effect on calcium transient amplitudes: abolishes the inotropic effect
